{"source": "ChEMBL document CHEMBL5055650", "about": "“4-Acyl Pyrrole Capped HDAC Inhibitors: A New Scaffold for Hybrid Inhibitors of BET Proteins and Histone Deacetylases as Antileukemia Drug Leads” (J Med Chem, 2021)", "key": {"[1]": {"species_on_record": "Danio rerio", "test": "Toxicity in zebrafish embryos assessed as tail necrosis at 0.005 uM after 72 hrs by visual analysis (reference value: 0%)", "assay_type": "organism-based", "details": "in vivo"}, "[2]": {"species_on_record": "Danio rerio", "test": "Toxicity in zebrafish embryos assessed as malformation of head at 0.5 uM after 72 hrs by visual analysis (reference value: 0%)", "assay_type": "organism-based", "details": "in vivo"}, "[3]": {"test": "Nonlethal toxicity in zebrafish embryos assessed as embryo survival at 50 uM after 72 hrs by visual analysis (reference value: 100%)", "assay_type": "organism-based, Danio rerio", "details": "in vivo"}, "[4]": {"tested_on": "Danio rerio", "test": "Toxicity in zebrafish embryos assessed as pericardial edema at 0.05 uM after 72 hrs by visual analysis (reference value: 10%)", "assay_type": "organism-based, Embryo", "details": "in vivo"}, "[5]": {"test": "Nonlethal toxicity in zebrafish embryos assessed as embryo survival at 0.05 uM after 72 hrs by visual analysis (reference value: 100%)", "assay_type": "organism-based, Danio rerio", "details": "in vivo"}, "[6]": {"tested_on": "Danio rerio", "test": "Toxicity in zebrafish embryos assessed as pericardial edema at 0.5 uM after 72 hrs by visual analysis (reference value: 10%)", "assay_type": "organism-based, Embryo", "details": "in vivo"}, "[7]": {"tested_on": "HPBALL", "test": "Anticancer activity against human HPBALL cells assessed as reduction in size of colony at 5 uM measured after 24 hrs by colony formation assay", "assay_type": "functional, cell-based"}, "[8]": {"species_on_record": "Danio rerio", "test": "Toxicity in zebrafish embryos assessed as head necrosis at 0.005 uM after 72 hrs by visual analysis (reference value: 0%)", "assay_type": "organism-based", "details": "in vivo"}, "[9]": {"species_on_record": "Danio rerio", "test": "Toxicity in zebrafish embryos assessed as malformation of tail at 0.005 uM after 72 hrs by visual analysis (reference value: 5%)", "assay_type": "organism-based", "details": "in vivo"}, "[10]": {"tested_on": "Danio rerio", "test": "Toxicity in zebrafish embryos assessed as yolk sac edema at 50 uM after 72 hrs by visual analysis (reference value: 0%)", "assay_type": "organism-based, Embryo", "details": "in vivo"}, "[11]": {"species_on_record": "Danio rerio", "test": "Toxicity in zebrafish embryos assessed as malformation of tail at 50 uM after 72 hrs by visual analysis (reference value: 5%)", "assay_type": "organism-based", "details": "in vivo"}, "[12]": {"species_on_record": "Danio rerio", "test": "Toxicity in zebrafish embryos assessed as head necrosis at 0.5 uM after 72 hrs by visual analysis (reference value: 0%)", "assay_type": "organism-based", "details": "in vivo"}, "[13]": {"species_on_record": "Danio rerio", "test": "Toxicity in zebrafish embryos assessed as cardiac teratogenesis/necrosis at 0.05 uM after 72 hrs by visual analysis (reference value: 0%)", "assay_type": "organism-based, Embryo", "details": "in vivo"}, "[14]": {"tested_on": "Danio rerio", "test": "Toxicity in zebrafish embryos assessed as yolk sac edema at 5 uM after 72 hrs by visual analysis (reference value: 0%)", "assay_type": "organism-based, Embryo", "details": "in vivo"}, "[15]": {"species_on_record": "Danio rerio", "test": "Toxicity in zebrafish embryos assessed as malformation of tail at 5 uM after 72 hrs by visual analysis (reference value: 5%)", "assay_type": "organism-based", "details": "in vivo"}, "[16]": {"species_on_record": "Danio rerio", "test": "Toxicity in zebrafish embryos assessed as cardiac teratogenesis/necrosis at 0.005 uM after 72 hrs by visual analysis (reference value: 0%)", "assay_type": "organism-based, Embryo", "details": "in vivo"}, "[17]": {"tested_on": "Danio rerio", "test": "Toxicity in zebrafish embryos assessed as yolk sac edema at 0.005 uM after 72 hrs by visual analysis (reference value: 0%)", "assay_type": "organism-based, Embryo", "details": "in vivo"}, "[18]": {"species_on_record": "Danio rerio", "test": "Toxicity in zebrafish embryos assessed as head necrosis at 50 uM after 72 hrs by visual analysis (reference value: 0%)", "assay_type": "organism-based", "details": "in vivo"}, "[19]": {"species_on_record": "Danio rerio", "test": "Toxicity in zebrafish embryos assessed as teratogenesis at 50 uM after 72 hrs by visual analysis (reference value: 0%)", "assay_type": "organism-based, Embryo", "details": "in vivo"}, "[20]": {"species_on_record": "Danio rerio", "test": "Toxicity in zebrafish embryos assessed as teratogenesis at 5 uM after 72 hrs by visual analysis (reference value: 0%)", "assay_type": "organism-based, Embryo", "details": "in vivo"}, "[21]": {"species_on_record": "Danio rerio", "test": "Toxicity in zebrafish embryos assessed as head necrosis at 0.05 uM after 72 hrs by visual analysis (reference value: 0%)", "assay_type": "organism-based", "details": "in vivo"}, "[22]": {"species_on_record": "Danio rerio", "test": "Toxicity in zebrafish embryos assessed as brain hemorrhage at 0.05 uM after 72 hrs by visual analysis (reference value: 0%)", "assay_type": "organism-based", "details": "in vivo"}, "[23]": {"species_on_record": "Danio rerio", "test": "Toxicity in zebrafish embryos assessed as brain hemorrhage at 0.5 uM after 72 hrs by visual analysis (reference value: 0%)", "assay_type": "organism-based", "details": "in vivo"}, "[24]": {"tested_on": "Danio rerio", "test": "Toxicity in zebrafish embryos assessed as yolk sac edema at 0.5 uM after 72 hrs by visual analysis (reference value: 0%)", "assay_type": "organism-based, Embryo", "details": "in vivo"}, "[25]": {"species_on_record": "Danio rerio", "test": "Toxicity in zebrafish embryos assessed as teratogenesis at 0.05 uM after 72 hrs by visual analysis (reference value: 0%)", "assay_type": "organism-based, Embryo", "details": "in vivo"}, "[26]": {"tested_on": "K562", "test": "Induction of apoptosis in human K562 cells assessed as apoptosis at 2.9 uM after 24 to 72 hrs using annexin V/PI followed by flow cytometry", "assay_type": "functional, cell-based", "details": "time 24-72 hrs"}}, "note": "The source made the active and inactive calls. The calls are words filed in the database; no cut-off is given here.", "data": [{"smiles": "Cc1[nH]c(C(=O)Nc2cc(S(=O)(=O)N3CCOCC3)ccc2OCCCCCCCC(=O)NO)c2c1C(=O)CCCC2", "values": [{"measurement": "Activity", "setting": "[1]", "result": 15, "unit": "%"}, {"measurement": "Activity", "setting": "[2]", "result": 15, "unit": "%"}, {"measurement": "survival at 72 h, 50 µM", "setting": "[3]", "result": 100, "unit": "%"}, {"measurement": "Activity", "setting": "[4]", "result": 10, "unit": "%"}, {"measurement": "survival at 72 h, 0.05 µM", "setting": "[5]", "result": 95, "unit": "%"}, {"measurement": "Activity", "setting": "[6]", "result": 20, "unit": "%"}, {"measurement": "Activity", "setting": "[7]", "result": "Active"}, {"measurement": "Activity", "setting": "[8]", "result": 15, "unit": "%"}, {"measurement": "Activity", "setting": "[9]", "result": 5, "unit": "%"}, {"measurement": "Activity", "setting": "[10]", "result": 10, "unit": "%"}, {"measurement": "Activity", "setting": "[11]", "result": 15, "unit": "%"}, {"measurement": "Activity", "setting": "[12]", "result": 15, "unit": "%"}, {"measurement": "Activity", "setting": "[13]", "result": 0, "unit": "%"}, {"measurement": "Activity", "setting": "[14]", "result": 0, "unit": "%"}, {"measurement": "Activity", "setting": "[15]", "result": 10, "unit": "%"}, {"measurement": "Activity", "setting": "[16]", "result": 0, "unit": "%"}, {"measurement": "Activity", "setting": "[17]", "result": 5, "unit": "%"}, {"measurement": "Activity", "setting": "[18]", "result": 15, "unit": "%"}, {"measurement": "Activity", "setting": "[19]", "result": 0, "unit": "%"}, {"measurement": "Activity", "setting": "[20]", "result": 15, "unit": "%"}, {"measurement": "Activity", "setting": "[21]", "result": 0, "unit": "%"}, {"measurement": "Activity", "setting": "[22]", "result": 0, "unit": "%"}, {"measurement": "Activity", "setting": "[23]", "result": 0, "unit": "%"}, {"measurement": "Activity", "setting": "[24]", "result": 15, "unit": "%"}, {"measurement": "Activity", "setting": "[25]", "result": 10, "unit": "%"}]}, {"smiles": "COc1ccc(S(=O)(=O)n2ccc(/C=C/C(=O)NO)c2)cc1NC(=O)c1[nH]c(C)c2c1CCCCC2=O", "values": [{"measurement": "Activity", "setting": "[26]", "result": "Active"}]}]}
